Data as given in US11098038B2, “Imidazole-based anticancer agents and derivatives thereof, and methods of making and using same” (The University of Toledo, priority 2017, dated 2021).

How the values were obtained:
[1] = tested on: NCI-H522; experiment: NCI 60 screen, NCI-H522; format: cell-based; conditions: Homo sapiens, Non-Small Cell Lung
Experimental: (§1) The compounds synthesized were tested at the National Cancer Institute (NCI) for anti-proliferative activity in the 60 human tumor cell line assay.

[2] = tested on: SK-OV-3; experiment: NCI 60 screen, SK-OV-3; format: cell-based; conditions: Homo sapiens, Ovarian
Experimental: as §1

[3] = tested on: UACC-257; experiment: NCI 60 screen, UACC-257; format: cell-based; conditions: Homo sapiens, Melanoma
Experimental: as §1

[4] = tested on: A498; experiment: NCI 60 screen, A498; format: cell-based; conditions: Homo sapiens, Renal
Experimental: as §1

[5] = tested on: CCRF-CEM; experiment: NCI 60 screen, CCRF-CEM; format: cell-based; conditions: Homo sapiens, Leukemia
Experimental: as §1

[6] = tested on: NCI-460; experiment: NCI 60 screen, NCI-460; format: cell-based; conditions: Homo sapiens, Non-Small Cell Lung
Experimental: as §1

[7] = tested on: HT29; experiment: NCI 60 screen, HT29; format: cell-based; conditions: Homo sapiens, HT-29, Colon
Experimental: as §1

[8] = tested on: SF-268; experiment: NCI 60 screen, SF-268; format: cell-based; conditions: Homo sapiens, CNS
Experimental: as §1

[9] = tested on: RXF393; experiment: NCI 60 screen, RXF393; format: cell-based; conditions: Homo sapiens, RXF 393, Renal
Experimental: as §1

[10] = tested on: OVCAR-5; experiment: NCI 60 screen, OVCAR-5; format: cell-based; conditions: Homo sapiens, Ovarian
Experimental: as §1

[11] = tested on: IGROV1; experiment: NCI 60 screen, IGROV1; format: cell-based; conditions: Homo sapiens, IGROV-1, Ovarian
Experimental: as §1

[12] = tested on: HCT-116; experiment: NCI 60 screen, HCT-116; format: cell-based; conditions: Homo sapiens, Colon
Experimental: as §1

[13] = tested on: HOP-92; experiment: NCI 60 screen, HOP-92; format: cell-based; conditions: Homo sapiens, Non-Small Cell Lung
Experimental: as §1

[14] = tested on: SF-539; experiment: NCI 60 screen, SF-539; format: cell-based; conditions: Homo sapiens, CNS
Experimental: as §1

[15] = tested on: DU-145; experiment: NCI 60 screen, DU-145; format: cell-based; conditions: Homo sapiens, Prostatic
Experimental: as §1

[16] = tested on: MDA-MB-435; experiment: NCI 60 screen, MDA-MB-435; format: cell-based; conditions: Homo sapiens, Melanoma
Experimental: as §1

[17] = tested on: NCI-H226; experiment: NCI 60 screen, NCI-H226; format: cell-based; conditions: Homo sapiens, Non-Small Cell Lung
Experimental: as §1

[18] = tested on: UO-31; experiment: NCI 60 screen, UO-31; format: cell-based; conditions: Homo sapiens, Renal
Experimental: as §1

[19] = tested on: SK-MEL-2; experiment: NCI 60 screen, SK-MEL-2 (second line); format: cell-based; conditions: Homo sapiens; Melanoma, SK-MEL-2 (second of two lines so named, r38)
Experimental: as §1

[20] = tested on: HS 578T; experiment: NCI 60 screen, HS 578T; format: cell-based; conditions: Homo sapiens, Breast
Experimental: as §1

[21] = tested on: KM12; experiment: NCI 60 screen, KM12; format: cell-based; conditions: Homo sapiens, Colon
Experimental: as §1

[22] = tested on: T-47D; experiment: NCI 60 screen, T-47D; format: cell-based; conditions: Homo sapiens, T47D, Breast
Experimental: as §1

[23] = tested on: NCI/ADR-RES; experiment: NCI 60 screen, NCI/ADR-RES; format: cell-based; conditions: Homo sapiens, Ovarian
Experimental: as §1

[24] = tested on: TK-10; experiment: NCI 60 screen, TK-10; format: cell-based; conditions: Homo sapiens, Renal
Experimental: as §1

[25] = tested on: HCT15; experiment: NCI 60 screen, HCT15; format: cell-based; conditions: Homo sapiens, HCT-15, Colon
Experimental: as §1

[26] = tested on: NCI-322M; experiment: NCI 60 screen, NCI-322M; format: cell-based; conditions: Homo sapiens, Non-Small Cell Lung
Experimental: as §1

[27] = tested on: K-562; experiment: NCI 60 screen, K-562; format: cell-based; conditions: Homo sapiens, K562, Leukemia
Experimental: as §1

[28] = tested on: EKVX; experiment: NCI 60 screen, EKVX; format: cell-based; conditions: Homo sapiens, Non-Small Cell Lung
Experimental: as §1

[29] = tested on: OVCAR-4; experiment: NCI 60 screen, OVCAR-4; format: cell-based; conditions: Homo sapiens, Ovarian
Experimental: as §1

[30] = tested on: BT-549; experiment: NCI 60 screen, BT-549; format: cell-based; conditions: Homo sapiens, Breast
Experimental: as §1

[31] = tested on: 786-0; experiment: NCI 60 screen, 786-0; format: cell-based; conditions: Homo sapiens, Renal
Experimental: as §1

[32] = tested on: HL-60(TB); experiment: NCI 60 screen, HL-60(TB); format: cell-based; conditions: Homo sapiens, Leukemia
Experimental: as §1

[33] = tested on: A549/ATCC; experiment: NCI 60 screen, A549/ATCC; format: cell-based; conditions: Homo sapiens, Non-Small Cell Lung
Experimental: as §1

[34] = tested on: MALME-3M; experiment: NCI 60 screen, MALME-3M; format: cell-based; conditions: Homo sapiens, Melanoma
Experimental: as §1

[35] = tested on: UACC-62; experiment: NCI 60 screen, UACC-62; format: cell-based; conditions: Homo sapiens, Melanoma
Experimental: as §1

[36] = tested on: HOP-62; experiment: NCI 60 screen, HOP-62; format: cell-based; conditions: Homo sapiens, Non-Small Cell Lung
Experimental: as §1

[37] = tested on: SNB-75; experiment: NCI 60 screen, SNB-75; format: cell-based; conditions: Homo sapiens, CNS
Experimental: as §1

[38] = tested on: MDA-MB-468; experiment: NCI 60 screen, MDA-MB-468; format: cell-based; conditions: Homo sapiens, Breast
Experimental: as §1

[39] = tested on: MCF7; experiment: NCI 60 screen, MCF7; format: cell-based; conditions: Homo sapiens, Breast
Experimental: as §1

[40] = tested on: SN12C; experiment: NCI 60 screen, SN12C; format: cell-based; conditions: Homo sapiens, Renal
Experimental: as §1

[41] = tested on: HCC-2998; experiment: NCI 60 screen, HCC-2998; format: cell-based; conditions: Homo sapiens, Colon
Experimental: as §1

[42] = tested on: M14; experiment: NCI 60 screen, M14; format: cell-based; conditions: Homo sapiens, Melanoma
Experimental: as §1

[43] = tested on: NCI-H23; experiment: NCI 60 screen, NCI-H23; format: cell-based; conditions: Homo sapiens, Non-Small Cell Lung
Experimental: as §1

[44] = tested on: MDA-MB-231/ATCC; experiment: NCI 60 screen, MDA-MB-231/ATCC; format: cell-based; conditions: Homo sapiens, Breast
Experimental: as §1

[45] = tested on: SR; experiment: NCI 60 screen, SR; format: cell-based; conditions: Homo sapiens, Leukemia
Experimental: as §1

[46] = tested on: SNB-19; experiment: NCI 60 screen, SNB-19; format: cell-based; conditions: Homo sapiens, CNS
Experimental: as §1

[47] = tested on: U251; experiment: NCI 60 screen, U251; format: cell-based; conditions: Homo sapiens, U-251, CNS
Experimental: as §1

[48] = tested on: SK-MEL-2; experiment: NCI 60 screen, SK-MEL-2 (first line); format: cell-based; conditions: Homo sapiens; Melanoma, SK-MEL-2 (first of two lines so named, r37)
Experimental: as §1

[49] = tested on: ACHN; experiment: NCI 60 screen, ACHN; format: cell-based; conditions: Homo sapiens, Renal
Experimental: as §1

[50] = tested on: MOLT-4; experiment: NCI 60 screen, MOLT-4; format: cell-based; conditions: Homo sapiens, Leukemia
Experimental: as §1

[51] = tested on: COLO 205; experiment: NCI 60 screen, COLO 205; format: cell-based; conditions: Homo sapiens, Colon
Experimental: as §1

[52] = tested on: SK-MEL-5; experiment: NCI 60 screen, SK-MEL-5; format: cell-based; conditions: Homo sapiens, Melanoma
Experimental: as §1

[53] = tested on: SF-295; experiment: NCI 60 screen, SF-295; format: cell-based; conditions: Homo sapiens, CNS
Experimental: as §1

[54] = tested on: LOX IMVI; experiment: NCI 60 screen, LOX IMVI; format: cell-based; conditions: Homo sapiens, Melanoma
Experimental: as §1

[55] = tested on: SW-620; experiment: NCI 60 screen, SW-620; format: cell-based; conditions: Homo sapiens, Colon
Experimental: as §1

[56] = tested on: PC-3; experiment: NCI 60 screen, PC-3; format: cell-based; conditions: Homo sapiens, Prostatic
Experimental: as §1

[57] = tested on: OVCAR-8; experiment: NCI 60 screen, OVCAR-8; format: cell-based; conditions: Homo sapiens, Ovarian
Experimental: as §1

[58] = tested on: OVCAR-3; experiment: NCI 60 screen, OVCAR-3; format: cell-based; conditions: Homo sapiens, Ovarian
Experimental: as §1

[59] = tested on: RPMI-8226; experiment: NCI 60 screen, RPMI-8226; format: cell-based; conditions: Homo sapiens, Leukemia
Experimental: as §1

SMILES: Cn1ccnc1C(=O)/C=C/c1ccc(CC(=O)Nc2ccccc2)cc1 [Compound 27, (E)-2-(4-(3-(1-methyl-1H-imidazol-2-yl)-3-oxoprop-1-en-1-yl)phenyl)-N-phenylacetamide]
- GI50 [1]: 3.2 µM
- GI50 [2]: 9.3 µM
- GI50 [3]: 6.98 µM
- GI50 [4]: 6.08 µM
- GI50 [5]: 2370 nM
- GI50 [6]: 2320 nM
- GI50 [7]: 2400 nM
- GI50 [8]: 3.75 µM
- GI50 [9]: 3.86 µM
- GI50 [10]: 4.19 µM
- GI50 [11]: 2110 nM
- GI50 [12]: 1680 nM
- GI50 [13]: 6.63 µM
- GI50 [14]: 2430 nM
- GI50 [15]: 1100 nM
- GI50 [16]: 4.3 µM
- GI50 [17]: 8.59 µM
- GI50 [18]: 2770 nM
- GI50 [19]: 5.69 µM
- GI50 [20]: 1420 nM
- GI50 [21]: 3.39 µM
- GI50 [22]: 5.23 µM
- GI50 [23]: 7.54 µM
- GI50 [24]: 7.44 µM
- GI50 [25]: 1250 nM
- GI50 [26]: 2570 nM
- GI50 [27]: 1070 nM
- GI50 [28]: 6.28 µM
- GI50 [29]: 4.12 µM
- GI50 [30]: 2950 nM
- GI50 [31]: 2670 nM
- GI50 [32]: 1570 nM
- GI50 [33]: 6.6 µM
- GI50 [34]: 5.93 µM
- GI50 [35]: 4.13 µM
- GI50 [36]: 3.75 µM
- GI50 [37]: 25 µM
- GI50 [38]: 1710 nM
- GI50 [39]: 1130 nM
- GI50 [40]: 3.84 µM
- GI50 [41]: 4.42 µM
- GI50 [42]: 4.55 µM
- GI50 [43]: 3.24 µM
- GI50 [44]: 2370 nM
- GI50 [45]: 1160 nM
- GI50 [46]: 1900 nM
- GI50 [47]: 1570 nM
- GI50 [48]: 5.06 µM
- GI50 [49]: 5.24 µM
- GI50 [50]: 4.3 µM
- GI50 [51]: 3.77 µM
- GI50 [52]: 4.18 µM
- GI50 [53]: 5.44 µM
- GI50 [54]: 1030 nM
- melting point: 184 to 186 °C
- GI50 [55]: 2750 nM
- GI50 [56]: 3.29 µM
- GI50 [57]: 6.44 µM
- GI50 [58]: 1870 nM
- GI50 [59]: 1450 nM
